Data: patent US20260224592A1, “COMPOSITIONS AND METHODS FOR TREATING SEVERE […]” (SHENZHEN HIGHTIDE BIOPHARMACEUTICAL LTD., priority 2023, published 2026)

Key:
[1] = test system: high fat diet induced hyperlipidemia/NAFLD hamster model; test: Study B: hyperlipidemia/NAFLD hamster model, BUDCA versus UDCA or BBR-Cl, 6 weeks treatment; assay type: in vivo, golden hamster; settings: for Serum lipids HDL-c / Serum lipids LDL-c / Serum lipids TC / Serum lipids TG: 6 weeks daily oral, equimolar high doses: 200 mg/kg BUDCA; for Serum lipids HDL-c / Serum lipids LDL-c / Serum lipids TC / Serum lipids TG / Liver TC / Liver TG / Proportion of oil red O staining positive area / Steatosis Score of HE staining: 107.8 mg/kg UDCA, 102.2 mg/kg BBR-Cl, mean ± SEM; for Liver TC / Liver TG / Proportion of oil red O staining positive area / Steatosis Score of HE staining: 200 mg/kg BUDCA
Description: Study B was conducted using the same hamster model as described in Study A to evaluate the efficacy of BUDCA as well as to compare the effects of BUDCA with equivalent doses of either UDCA or BBR-Cl on their own. The model was induced with the same method as indicated in Study A. After the 2-week induction period, hamsters were randomized into treatment groups and continued the high fat diet for an additional 6-week period, concurrent with the daily oral administration of various doses of BUDCA (Low dose: […]; Medium dose: 100 mg/mL; […]), BBR-Cl on its own (Low dose: 51.1 mg/mL; […]), UDCA on its own (Low dose: 53.9 mg/mL; […]), or a 1:1 physical mixture of BBR-Cl and UDCA equivalent to a lower dose of BUDCA (105.0 mg/mL). A model control group continued the high fat diet and normal control group fed the standard diet were both administered the vehicle 0.5% carboxymethyl cellulose sodium (CMC-Na) solution. All animals were sacrificed for terminal evaluations at the end of the 6-week dosing period.
Endpoints evaluated included serum lipids (TC, TG, LDL-C, HDL-C), liver lipid content (TC and TG), liver injury (ALT, AST, total bile acids (TBA) and total bilirubin (TBIL)), liver weight (expressed relative to body weight as liver index), macroscopic observation and histopathology evaluation of the livers. Histopathology endpoints included pathologist observation, as well as numerical comparison via the nonalcoholic fatty liver disease activity score (NAS) and a fibrosis severity score.
Terminal endpoints in model control animals also confirmed increased liver weight and histopathology of the liver as evidenced by steatosis, hepatocytes swelling, punctate necrosis, inflammatory cell infiltration and local fibrosis. Therefore, the model was not only able to replicate key characteristics of the NAFLD disease spectrum in humans, but also hyperlipidemia.

[2] = test system: high fat diet induced hyperlipidemia/NAFLD hamster model; test: Study A: high-fat/high-cholesterol diet induced hyperlipidemia/NAFLD hamster model, 7 weeks treatment; assay type: in vivo, Male Golden Syrian hamsters; settings: for HDL-c (serum) / LDL-c (serum) / PCSK9 (serum) / TC (serum) / TG (serum) / AI value (atherosclerosis index): mean ± SEM; for AI value (atherosclerosis index): AI = (TC − HDL-c)/HDL-c
Description: Various pre-clinical and clinical studies were performed to evaluate safety and efficacy of BUDCA. Primary and secondary pharmacodynamics studies were performed. Specific to nonclinical proof of concept for BUDCA in SHTG, the efficacy of BUDCA on hyperlipidemia/NAFLD was evaluated in two studies (Study A and Study B) using a high fat diet induced hyperlipidemia/NAFLD hamster model. Dietary induced changes in hamsters can be considered a valid model for dyslipidemia.
Male Golden Syrian hamsters were fed with a high-fat/high-cholesterol diet which contained 1.25% cholesterol, 20.06% grease (2.79% soybean oil, 17.27% cocoa butter) to establish the hyperlipidemia/NAFLD model. After 2 weeks of high-fat/high-cholesterol diet inducement, 24 hamsters with fasting TC level 17.96±1.70 mmol/L were selected and divided into 3 groups of 8 hamsters each (model group G1, 50 mg/kg/day BUDCA group G2, and 200 mg/kg/day BUDCA group G3). Eight hamsters comprising the normal control were fed with a normal chow diet.
The normal and Model control groups received vehicle (10 mL/kg 0.5% gum tragacanth solution), while the two BUDCA treatment groups received BUDCA, via intragastric administration for 7 weeks prior to sacrifice.
During the treatment period, blood was collected at weeks 1, 3, 5, and 7, for biochemical analysis including serum TC, TG, HDL-c, LDL-c, and liver enzymes. At the end of the study, animals were sacrificed for liver macroscopic observation and liver tissues were collected for histopathological evaluations and liver lipid contents.

[3] = test system: overweight or obese adults with hypercholesterolemia; test: Study C: Phase 1b/2a study in overweight or obese adults with hypercholesterolemia, 28 days; assay type: in vivo, human; settings: BUDCA 250, 500 or 1000 mg BID, maximum reductions relative to placebo after 14 days
Description: In a Phase 1b/2a study, 50 overweight or obese adults with hypercholesterolemia were enrolled and treated with BUDCA for 28 days. The primary objective was to evaluate safety and tolerability of BUDCA. Given that the subjects enrolled in this study were obese with a history of hypercholesteremia, the focus of the efficacy and PD endpoints was lipid metabolism. Key entry criteria included BMI 2 and LDL-C, BUDCA 250 mg BID (N=12), BUDCA 500 mg BID (N=12), or BUDCA 1000 mg BID (N=12).
While all subjects had hypercholesteremia at baseline, TG levels generally ranged from normal to mild HTG (three subjects from each of placebo, BUDCA 500 mg BID, and BUDCA 1000 mg BID had TG values >200 mg/dL) and HDL-C levels were generally in the normal range.

[4] = test system: adults with NASH and T2DM; test: Study D: randomized, double-blind, placebo-controlled Phase 2 study in adults with NASH and T2DM, 18 weeks; assay type: in vivo, human
Description: Study D was a randomized, double-blind, placebo-controlled Phase 2 study in adults with NASH and T2DM. The primary objective of this study was to evaluate the change from baseline in liver fat content as assessed by MRI-PDFF, but also evaluated changes in key cardiometabolic parameters, including lipids. Key entry criteria included the clinical diagnosis of NASH and T2DM and BMI >25.0 kg/m2. Subjects were randomized and treated with placebo (N=33), BUDCA 500 mg BID (N=33), or BUDCA 1000 mg BID (N=34) for 18 weeks (Harrison 2021).
Demographic characteristics were generally well balanced among treatment groups. The median age overall was 57 years (range: 26 to 75 years), and there were 72% females and 28% males. Most subjects were White (91%) and not Hispanic or Latino (62%). Mean baseline weight and BMI were similar across treatment groups. On average, LDL-C was elevated and near the upper limit of the normal range and TGs were elevated above the normal. Baseline values for HbA1c, ALT, GGT, liver fat content, and cT1 were similar across treatment groups.
Study D evaluated the effects of BUDCA on lipids as secondary efficacy endpoints. On average, subjects had near-normal LDL-C at baseline with borderline-high levels of TG. While the average values were generally similar across treatment groups, it should be noted that LDL-C was lower in the BUDCA 500 mg BID treatment group while TGs were lower in the BUDCA 1000 mg BID treatment group (Table 6). […] Reductions in TGs with the […] dose were statistically significant compared with placebo. Reduced TG levels were paralleled with a reduction in LDL-C after 18 weeks of treatment with BUDCA 1000 mg BID (−13%), but not with BUDCA 500 mg BID (3%) or with placebo (0%).

subjects with HTG = test: Pooled analysis of Study C and Study D in subjects with HTG (baseline TGs above 200 mg/dL); assay type: in vivo, human; settings: for placebo-corrected median percent change from baseline in TGs: end of treatment
Description: Efficacy was also tested in two clinical studies that established merits for further clinical study in patients with SHTG: Study C was conducted in adults with hypercholesterolemia and […] and T2DM. A pooled analysis was conducted based on these two studies specifically evaluating the data from subjects who had HTG at baseline (TG 200 mg/dL).
To further investigate the potential of BUDCA for lowering TGs in patients with elevated TGs, a pooled analysis across studies Study C and Study D was conducted focusing on the subjects with baseline TGs above 200 mg/dL (HTG) (Table 6). The analysis pooled the baseline and end of treatment timepoints for this evaluation as the two studies had different durations (4 weeks vs 18 weeks).

[5] = 50 mg/kg/day BUDCA intragastric, 7 weeks
[6] = 200 mg/kg/day BUDCA intragastric, 7 weeks
[7] = both doses of BUDCA, HTG subgroup

SMILES: COc1ccc2cc3[n+](cc2c1OC)CCc1cc2c(cc1-3)OCO2.[Cl-] [BBR-Cl]
- Serum lipids HDL-c [1]: 5.24 ± 0.30 mmol/L
- Serum lipids LDL-c [1]: 6.53 ± 1.10 mmol/L
- Serum lipids TC [1]: 14.86 ± 1.23 mmol/L
- Serum lipids TG [1]: 3.72 ± 0.37 mmol/L
- Liver TC ([1]; 6 weeks): 29.27 ± 4.47 mg/g
- Liver TG ([1]; 6 weeks): 19.18 ± 2.24 mg/g
- Proportion of oil red O staining positive area ([1]; 6 weeks): 18.97 ± 2.43 %
- Steatosis Score of HE staining ([1]; 6 weeks): 2.75 ± 0.16

SMILES: COc1ccc2cc3[n+](cc2c1OC)CCc1cc2c(cc1-3)OCO2.C[C@H](CCC(=O)[O-])[C@H]1CC[C@H]2[C@@H]3[C@@H](O)C[C@@H]4C[C@H](O)CC[C@]4(C)[C@H]3CC[C@]12C [BUDCA, Berberine Ursodeoxycholate]
- HDL-c (serum) [2, 5]: 3.42 ± 0.28 mmol/L
- LDL-c (serum) [2, 5]: 2.95 ± 1.72 mmol/L
- PCSK9 (serum) [2, 5]: 124.9 ± 16.8 pg/mL
- TC (serum) [2, 5]: 9.78 ± 2.58 mmol/L
- TG (serum) [2, 5]: 3.88 ± 1.21 mmol/L
- Liver TC ([2]; 50 mg/kg/day BUDCA, 7 weeks): 14.62 ± 4.89 mg/g
- Liver TG ([2]; 50 mg/kg/day BUDCA, 7 weeks): 5.40 ± 2.64 mg/g
- AI value (atherosclerosis index) ([2]; 50 mg/kg/day BUDCA, 7 weeks): 1.88 ± 0.83
- HDL-c (serum) [2, 6]: 2.53 ± 0.29 mmol/L
- LDL-c (serum) [2, 6]: 1.23 ± 0.28 mmol/L
- PCSK9 (serum) [2, 6]: 179.0 ± 30.9 pg/mL
- TC (serum) [2, 6]: 4.95 ± 0.84 mmol/L
- TG (serum) [2, 6]: 1.90 ± 0.66 mmol/L
- Liver TC ([2]; 200 mg/kg/day BUDCA, 7 weeks): 3.82 ± 1.78 mg/g
- Liver TG ([2]; 200 mg/kg/day BUDCA, 7 weeks): 5.61 ± 1.98 mg/g
- AI value (atherosclerosis index) ([2]; 200 mg/kg/day BUDCA, 7 weeks): 0.95 ± 0.19
- serum PCSK9 levels compared to the Model control group ([2]; 7-weeks of BUDCA treatment, P<0.05): significantly reduced
- serum TG, TC, LDL-c levels, and AI compared to the model group ([2]; BUDCA 50 and 200 mg/kg/day, 7 weeks, P<0.01, dose-dependent): significantly reduced
- liver contents of TG and TC compared to the model group ([2]; both doses of BUDCA, 7 weeks, P<0.01): significantly decreased
- Serum lipids HDL-c [1]: 4.25 ± 0.40 mmol/L
- Serum lipids LDL-c [1]: 1.26 ± 0.15 mmol/L
- Serum lipids TC [1]: 7.03 ± 0.73 mmol/L
- Serum lipids TG [1]: 2.06 ± 0.39 mmol/L
- Liver TC ([1]; 6 weeks): 4.59 ± 0.84 mg/g
- Liver TG ([1]; 6 weeks): 3.92 ± 0.50 mg/g
- Proportion of oil red O staining positive area ([1]; 6 weeks): 1.18 ± 0.69 %
- Steatosis Score of HE staining ([1]; 6 weeks): 1.00 ± 0.38
- serum TC and TG, LDL-C, ALT, AST, TBA, TBIL, liver weight, liver TC and TG, NAS score, and fibrosis (score and % area) ([1]; relative to model control animals, low, medium and high dose BUDCA, 6 weeks): reduced all the following parameters in a dose dependent manner
- beneficial effects on most parameters, including serum lipids and liver lipid deposition, compared with the individual moieties ([1]; versus equivalent doses of UDCA or BBR administered alone): greater than those achieved with either UDCA or BBR when administered alone
- serum lipid levels [3]: decreased in a dose-dependent fashion
- HbA1c change from baseline ([4]; 18 weeks of BUDCA treatment (500 and 1000 mg BID), in contrast to increase with placebo): Significant dose dependent reductions
- LDL-C, change from baseline to week 18 ([4]; BUDCA 500 mg BID, 18 weeks): 3%
- TG levels, change from baseline to week 18 ([4]; BUDCA 500 mg BID, 18 weeks): −9%
- mean change in fasting plasma glucose ([4]; BUDCA 500 mg BID, 18 weeks): -18 mg/dL
- LDL-C, change from baseline to week 18 ([4]; BUDCA 1000 mg BID, 18 weeks): −13%
- TG levels, change from baseline to week 18 ([4]; BUDCA 1000 mg BID, 18 weeks): −11%
- mean change in fasting plasma glucose ([4]; BUDCA 1000 mg BID, 18 weeks): -22 mg/dL
- change from baseline in body weight ([4]; BUDCA 1000 mg BID, 18 weeks, p<0.05 vs placebo): -3.5 kg
- placebo-corrected median percent change from baseline in TGs (subjects with HTG; BUDCA 500 mg BID, 95% CI (−52.63, 17.93)): −12.3%
- HDL-C at the end of treatment (subjects with HTG; BUDCA 1000 mg BID, HTG population): increase in HDL-C
- placebo-corrected median percent change from baseline in TGs (subjects with HTG; BUDCA 1000 mg BID, 95% CI (−55.57, 16.61)): −17.7%
- change from baseline to end of treatment in body weight (subjects with HTG; BUDCA 1000 mg BID, subjects with HTG, based solely on one of the two studies): -4.6 kg
- LDL-C at the end of treatment (subjects with HTG; both doses of BUDCA (500 and 1000 mg BID), HTG population): decrease in LDL-C
- HbA1c (subjects with HTG; [7]): no worsening of HbA1c
- fasting plasma glucose (subjects with HTG; [7]): decrease in fasting plasma glucose

SMILES: C[C@H](CCC(=O)O)[C@H]1CC[C@H]2[C@@H]3[C@@H](O)C[C@@H]4C[C@H](O)CC[C@]4(C)[C@H]3CC[C@]12C [UDCA]
- Serum lipids HDL-c [1]: 4.81 ± 0.15 mmol/L
- Serum lipids LDL-c [1]: 3.83 ± 0.47 mmol/L
- Serum lipids TC [1]: 10.13 ± 0.73 mmol/L
- Serum lipids TG [1]: 2.17 ± 0.18 mmol/L
- Liver TC ([1]; 6 weeks): 17.95 ± 4.04 mg/g
- Liver TG ([1]; 6 weeks): 11.24 ± 2.69 mg/g
- Proportion of oil red O staining positive area ([1]; 6 weeks): 11.72 ± 4.65 %
- Steatosis Score of HE staining ([1]; 6 weeks): 2.13 ± 0.35
